From ChEMBL document CHEMBL3232928, “Fragment-to-hit-to-lead discovery of a novel pyridylurea scaffold of ATP competitive dual targeting type II topoisomerase inhibiting antibacterial agents” (J Med Chem, 2013)
Values after ≈ are worked out from the molar mass of the structure shown. Active and inactive are the calls of the source. The calls are words filed in the database; no cut-off is given here.

Columns and labels:
[1] = biological target: DNA gyrase subunit B (Staphylococcus aureus, UniProt P0A0K8); assay: Inhibition of ATPase activity in Staphylococcus aureus GyrB tetramer in presence of Escherichia coli GyrA by ammonium molybdate/malachite green-based absorbance assay
[2] = Inhibition of ATPase activity in Escherichia coli GyrA/GyrB by ammonium molybdate/malachite green-based absorbance assay
[3] = Inhibition of ATPase activity in Escherichia coli ParC/ParE by ammonium molybdate/malachite green-based absorbance assay
[4] = Inhibition of ATPase activity in Escherichia coli ParE by ammonium molybdate/malachite green-based absorbance assay
[5] = Antibacterial activity against Streptococcus pneumoniae D39 NCTC 7466 assessed as growth inhibition after 18 to 24 hrs by CLSI broth microdilution method; assay type: functional
[6] = test system: Staphylococcus aureus; assay: Antibacterial activity against methicillin-sensitive wild type Staphylococcus aureus assessed as growth inhibition after 18 to 24 hrs by CLSI broth microdilution method; assay type: functional
[7] = test system: Staphylococcus aureus; assay: Antibacterial activity against methicillin-resistant and […] Staphylococcus aureus assessed as growth inhibition after 18 to 24 hrs by CLSI broth microdilution method; assay type: functional
[8] = test system: Moraxella catarrhalis; assay: Antibacterial activity against wild type Moraxella catarrhalis ATCC 43617 assessed as growth inhibition after 18 to 24 hrs by CLSI broth microdilution method; assay type: functional
[9] = Antibacterial activity against wild type Haemophilus influenzae Rd KW20 ATCC 51907 assessed as growth inhibition after 18 to 24 hrs by CLSI broth microdilution method; assay type: functional
[10] = test system: Escherichia coli; assay: Antibacterial activity against wild type Escherichia coli W3110 assessed as growth inhibition after 18 to 24 hrs by CLSI broth microdilution method; assay type: functional
[11] = test system: Escherichia coli; assay: Antibacterial activity against tolC efflux pump deficient Escherichia coli W3110 assessed as growth inhibition after 18 to 24 hrs by CLSI broth microdilution method; assay type: functional
[12] = Octanol-phosphate buffer partition coefficient, log D of the compound at pH 7.4 after 1 hr by shake flask method; assay type: physicochemical
[13] = Solubility of the compound; assay type: physicochemical
[14] = Unbound fraction in human at 10 uM after 16 hrs by LC-MS/MS analysis; assay type: ADME; details: plasma
[15] = Dissociation constant, pKa of the compound; assay type: physicochemical
[16] = Clearance in rat plasma at 10 mg/kg, iv administered 15 mins of infusion measured for 0 to 24 hrs by LC-MS/MS analysis; assay type: ADME, organism-based; parameters: dose 10 mg/kg, route intravenous
[17] = Volume of distribution at steady state in rat plasma at 10 mg/kg, iv administered 15 mins of infusion measured for 0 to 24 hrs by LC-MS/MS analysis; assay type: ADME, organism-based; parameters: dose 10 mg/kg, route intravenous; details: read-out: Vdss
[18] = Clearance in mouse; assay type: ADME, organism-based; details: in vivo
[19] = Volume of distribution at steady state in mouse; assay type: ADME, organism-based; details: in vivo, read-out: Vdss
[20] = Antibacterial activity against fluoroquinolone-resistant Streptococcus pneumoniae D39 NCTC 7466 expressing ParE/GyrB T172A mutant assessed as growth inhibition after 18 to 24 hrs by CLSI broth microdilution method; assay type: functional
[21] = Antibacterial activity against fluoroquinolone-resistant Streptococcus pneumoniae D39 NCTC 7466 expressing ParE/GyrB K143I mutant assessed as growth inhibition after 18 to 24 hrs by CLSI broth microdilution method; assay type: functional
[22] = Antibacterial activity against fluoroquinolone-resistant Streptococcus pneumoniae D39 NCTC 7466 expressing GyrB/ParE T172A mutant assessed as growth inhibition after 18 to 24 hrs by CLSI broth microdilution method; assay type: functional
[23] = Antibacterial activity against fluoroquinolone-resistant Streptococcus pneumoniae D39 NCTC 7466 expressing GyrB T172A/ParE T172A double mutant assessed as growth inhibition after 18 to 24 hrs by CLSI broth microdilution method; assay type: functional
[24] = Antibacterial activity against fluoroquinolone-resistant Streptococcus pneumoniae D39 NCTC 7466 expressing GyrB K143A/ParE T172A double mutant assessed as growth inhibition after 18 to 24 hrs by CLSI broth microdilution method; assay type: functional
[25] = Antibacterial activity against fluoroquinolone-resistant Streptococcus pneumoniae D39 NCTC 7466 expressing GyrA S81F/ParC S79F double mutant assessed as growth inhibition after 18 to 24 hrs by CLSI broth microdilution method; assay type: functional
[26] = Antibacterial activity against fluoroquinolone-resistant Streptococcus pneumoniae D39 NCTC 7466 expressing GyrA S81Y/ParC S79F double mutant assessed as growth inhibition after 18 to 24 hrs by CLSI broth microdilution method; assay type: functional
[27] = Antibacterial activity against fluoroquinolone-resistant Streptococcus pneumoniae D39 NCTC 7466 expressing GyrA S81F/ParC S79Y double mutant assessed as growth inhibition after 18 to 24 hrs by CLSI broth microdilution method; assay type: functional
[28] = test system: Staphylococcus aureus; assay: Antibacterial activity against Staphylococcus aureus infected in neutropenic mouse thigh model assessed as decrease in bacterial viable counts at 300 mg/kg, ip administered up to 12 hrs; assay type: functional, organism-based; parameters: dose 300 mg/kg
[29] = test system: Staphylococcus aureus; assay: Antibacterial activity against Staphylococcus aureus infected in neutropenic mouse thigh model assessed as decrease in bacterial viable counts at 300 mg/kg, ip administered up to 12 hrs relative to vehicle-treated control; assay type: functional; details: route intraperitoneal
[30] = test system: Staphylococcus aureus; assay: Antibacterial activity against ip dosed Staphylococcus aureus infected in neutropenic mouse thigh model assessed as decrease in bacterial viable counts administered up to 12 hrs relative to vehicle-treated control; assay type: functional, organism-based; details: Thigh muscle
[31] = test system: Staphylococcus aureus; assay: Antibacterial activity against ip dosed Staphylococcus aureus infected in neutropenic mouse thigh model assessed as decrease in bacterial viable counts administered up to 12 hrs; assay type: functional; details: Thigh muscle
[32] = test system: Staphylococcus aureus; assay: Resistance factor, ratio of MIC for Staphylococcus aureus drug resistance mutants at 0.05 ug/ml after 7 days to MIC for wild type methicillin-sensitive Staphylococcus aureus at 0.05 ug/ml after 7 days; assay type: functional
[33] = test system: Staphylococcus aureus; assay: Resistance factor, ratio of MIC for Staphylococcus aureus drug resistance mutants at 0.05 ug/ml after 7 days to MIC for wild type methicillin-sensitive Staphylococcus aureus at 0.1 ug/ml after 7 days; assay type: functional
[34] = test system: Staphylococcus aureus; assay: Resistance factor, ratio of MIC for Staphylococcus aureus drug resistance mutants at 0.05 ug/ml after 7 days to MIC for wild type methicillin-sensitive Staphylococcus aureus at 0.2 ug/ml after 7 days; assay type: functional
[35] = test system: Streptococcus pneumoniae; assay: microbe, parasite or virus in culture
Description: Antibacterial activity against wild type Streptococcus pneumoniae assessed as growth inhibition after 18 to 24 hrs by CLSI broth microdilution method

[36] = test system: Staphylococcus aureus; assay: Inhibition of DNA synthesis in methicillin-sensitive wild type Staphylococcus aureus over 1 hr by [3H]thymidine incorporation assay; assay type: functional, organism-based
[37] = test system: Staphylococcus aureus; assay: Inhibition of RNA synthesis in methicillin-sensitive wild type Staphylococcus aureus over 1 hr by [3H]uridine incorporation assay; assay type: functional, organism-based
[38] = test system: Staphylococcus aureus; assay: Inhibition of protein synthesis in methicillin-sensitive wild type Staphylococcus aureus over 1 hr by [14C]leucine incorporation assay; assay type: functional, organism-based
[39] = test system: Staphylococcus aureus; assay: Inhibition of protein synthesis in methicillin-sensitive wild type Staphylococcus aureus over 1 hr by [14C]valine incorporation assay; assay type: functional, organism-based
[40] = test system: Staphylococcus aureus; assay: Inhibition of fatty acid synthesis in methicillin-sensitive wild type Staphylococcus aureus over 1 hr by [14C]acetic acid incorporation assay; assay type: functional, organism-based
[41] = test system: Staphylococcus aureus; assay: Inhibition of cell wall synthesis in methicillin-sensitive wild type Staphylococcus aureus over 1 hr by [14C]N-acetyl glucosamine incorporation assay; assay type: functional, organism-based
[42] = test system: Streptococcus pneumoniae; assay: Inhibition of DNA synthesis in Streptococcus pneumoniae D39 over 1 hr by [3H]thymidine incorporation assay; assay type: functional
[43] = test system: Streptococcus pneumoniae; assay: Inhibition of RNA synthesis in Streptococcus pneumoniae D39 over 1 hr by [3H]uridine incorporation assay; assay type: functional
[44] = test system: Streptococcus pneumoniae; assay: Inhibition of protein synthesis in Streptococcus pneumoniae D39 over 1 hr by [14C]leucine incorporation assay; assay type: functional; details: D39, 1 h
[45] = test system: Streptococcus pneumoniae; assay: Inhibition of protein synthesis in Streptococcus pneumoniae D39 over 1 hr by [14C]valine incorporation assay; assay type: functional; details: D39, 1 h
[46] = test system: Streptococcus pneumoniae; assay: Inhibition of fatty acid synthesis in Streptococcus pneumoniae D39 over 1 hr by [14C]acetic acid incorporation assay; assay type: functional; details: D39, 1 h
[47] = test system: Streptococcus pneumoniae; assay: Inhibition of cell wall synthesis in Streptococcus pneumoniae D39 over 1 hr by [14C]N-acetyl glucosamine incorporation assay; assay type: functional; details: D39, 1 h

Sequence of DNA gyrase subunit B (P0A0K8 whole entry): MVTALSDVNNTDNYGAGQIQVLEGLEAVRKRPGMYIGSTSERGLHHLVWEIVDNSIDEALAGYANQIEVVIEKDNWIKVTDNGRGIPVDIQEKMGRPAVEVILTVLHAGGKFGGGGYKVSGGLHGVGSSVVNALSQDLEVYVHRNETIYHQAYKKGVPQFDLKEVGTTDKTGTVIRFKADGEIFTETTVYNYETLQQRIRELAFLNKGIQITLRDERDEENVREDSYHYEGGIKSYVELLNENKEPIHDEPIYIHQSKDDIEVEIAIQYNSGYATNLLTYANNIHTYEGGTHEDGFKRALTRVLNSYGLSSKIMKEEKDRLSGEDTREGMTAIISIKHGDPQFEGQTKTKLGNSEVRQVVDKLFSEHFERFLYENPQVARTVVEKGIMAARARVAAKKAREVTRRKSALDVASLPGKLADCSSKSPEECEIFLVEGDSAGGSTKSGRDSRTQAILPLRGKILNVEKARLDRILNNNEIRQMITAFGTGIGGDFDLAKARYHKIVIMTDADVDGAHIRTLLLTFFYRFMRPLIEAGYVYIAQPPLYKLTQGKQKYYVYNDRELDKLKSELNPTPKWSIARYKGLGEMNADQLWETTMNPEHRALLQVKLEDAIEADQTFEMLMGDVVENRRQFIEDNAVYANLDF

| SMILES | IC50 [1] | IC50 [2] | IC50 [3] | IC50 [4] | MIC [5] | MIC [6] | MIC [7] | MIC [8] | MIC [9] | MIC [10] | MIC [11] | logD at 1 h [12] | solubility [13] | fraction unbound at 16 h, 10 µM [14] | pKa [15] | clearance [16] | Vd [17] | MIC [20] | MIC [21] | MIC [22] | other results |
| --- | --- | --- | --- | --- | --- | --- | --- | --- | --- | --- | --- | --- | --- | --- | --- | --- | --- | --- | --- | --- | --- |
| CCNC(=O)Nc1cc(-c2nc(C(F)(F)F)cs2)c(-c2cncc(-c3n[nH]c(=O)o3)c2)cn1 | < 10 nM | < 10 nM | 230 nM | < 10 nM | 0.05 µg/mL (≈ 0.105 µM) | 0.04 µg/mL (≈ 0.0838 µM) | 0.06 µg/mL (≈ 0.126 µM) | 0.04 µg/mL (≈ 0.0838 µM) | 0.69 µg/mL (≈ 1.45 µM) | > 64 µg/mL | 0.15 µg/mL (≈ 0.314 µM) | 2 | 19 µM (≈ 9.07 µg/mL) | 0.044 | 6.6 | 36 mL/min/kg | 0.66 L/kg | 0.01 µg/mL (≈ 0.0209 µM) | 0.01 µg/mL (≈ 0.0209 µM) | 0.01 µg/mL (≈ 0.0209 µM) | clearance [18]: 74 mL/min/kg; Vd [19]: 2.6 L/kg; MIC [23]: 0.02 µg/mL (≈ 0.0419 µM); MIC [24]: 0.04 µg/mL (≈ 0.0838 µM); MIC [25]: 0.0025 µg/mL (≈ 0.00524 µM); MIC [26]: 0.0025 µg/mL (≈ 0.00524 µM); MIC [27]: 0.0025 µg/mL (≈ 0.00524 µM); Activity [28]: Active; fold change (FC) [29]: 3000; Activity [30]: Dose-dependent effect; ED50 [31]: 200 mg/kg; Ratio [32]: 16; Ratio [33]: 16; Ratio [34]: 16; MIC [35]: 0.0025 µg/mL (≈ 0.00524 µM) |
| C[C@H]1COc2c(N3CCN(C)CC3)c(F)cc3c(=O)c(C(=O)O)cn1c23.C[C@H]1COc2c(N3CCN(C)CC3)c(F)cc3c(=O)c(C(=O)O)cn1c23.O [LEVOFLOXACIN] | – | – | – | – | – | 0.13 µg/mL | 4 µg/mL | – | – | – | – | – | – | – | – | – | – | 0.5 µg/mL | 1 µg/mL | 1 µg/mL | MIC [23]: 0.5 µg/mL; MIC [24]: 0.5 µg/mL; MIC [25]: 16 µg/mL; MIC [26]: 16 µg/mL; MIC [27]: 32 µg/mL |
| CCNC(=O)Nc1cc(-c2nc(C(F)(F)F)cs2)c(-c2cncc(C(N)=O)c2)cn1 | < 10 nM | 17 nM | 960 nM | 12 nM | 0.09 µg/mL (≈ 0.206 µM) | 2.7 µg/mL (≈ 6.19 µM) | 1.4 µg/mL (≈ 3.21 µM) | 0.7 µg/mL (≈ 1.6 µM) | 5.5 µg/mL (≈ 12.6 µM) | > 64 µg/mL | 1.6 µg/mL (≈ 3.67 µM) | 2 | 26 µM (≈ 11.3 µg/mL) | 0.36 | – | 120 mL/min/kg | 1.5 L/kg | – | – | – | IC50 [36]: 1600 nM; IC50 [37]: 6900 nM; IC50 [38]: 8800 nM; IC50 [39]: 31000 nM; IC50 [40]: > 200000 nM; IC50 [41]: > 200000 nM; IC50 [42]: 460 nM; IC50 [43]: 830 nM; IC50 [44]: 860 nM; IC50 [45]: 1200 nM; IC50 [46]: > 20000 nM; IC50 [47]: > 20000 nM |
| CCNC(=O)Nc1cc(-c2nc(C(F)(F)F)cs2)c(-c2cncc(-c3noc(=O)[nH]3)c2)cn1 | 14 nM | < 10 nM | 1500 nM | 11 nM | 0.74 µg/mL (≈ 1.55 µM) | 48 µg/mL (≈ 101 µM) | 48 µg/mL (≈ 101 µM) | 24 µg/mL (≈ 50.3 µM) | > 64 µg/mL | > 64 µg/mL | 12 µg/mL (≈ 25.1 µM) | 0.28 | 830 µM (≈ 396 µg/mL) | 0.011 | 5.4 | 360 mL/min/kg | 3.5 L/kg | – | – | – | – |
| CCNC(=O)Nc1cc(-c2nc(C(F)(F)F)cs2)c(-c2cncc(C(=O)O)c2)cn1 | < 10 nM | < 10 nM | 510 nM | < 10 nM | 2 µg/mL (≈ 4.57 µM) | > 64 µg/mL | – | 64 µg/mL (≈ 146 µM) | > 64 µg/mL | > 64 µg/mL | 16 µg/mL (≈ 36.6 µM) | -0.62 | 800 µM (≈ 350 µg/mL) | 0.082 | 3.7 | – | – | – | – | – | – |
